Laboratory results as given in patent EP0041644B1 (priority 1980, dated 1981).

Tested on: L-1210 Leukemia
Test: L-1210 Leukemia (Table VIII)
Conditions: for lethality: 200 mg/kg, single ip injection; for maximum T/C / optimal doses: single ip injections; for optimal doses: dose of maximum T/C
Description: The sodium and ammonium salts of the present invention were tested against transplantable mouse tumors as indicated below. The methodology used generally followed the protocols of the National Cancer Institute (Cancer Chemotherapy Rep., Part 3, 3, 1-103 (1972). The essential experimental details are given at the bottom of the following tables.

Structure (SMILES)	Average Weight Change (25 mg/kg/inj ip, d.1) [g]	Effect MST % T/C (25 mg/kg/inj ip, d.1) [% T/C]	MST Days (25 mg/kg/inj ip, d.1) [days]	Survivors Day 5(30) (25 mg/kg/inj ip, d.1)	Effect MST % T/C (50 mg/kg/inj ip, d.1) [% T/C]	MST Days (50 mg/kg/inj ip, d.1) [days]	Survivors Day 5(30) (50 mg/kg/inj ip, d.1)	Effect MST % T/C (100 mg/kg/inj ip, d.1) [% T/C]	MST Days (100 mg/kg/inj ip, d.1) [days]	Survivors Day 5(30) (100 mg/kg/inj ip, d.1)	lethality	Average Weight Change,g (200 mg/kg/inj ip, d.1)	Effect MST % T/C (200 mg/kg/inj ip, d.1)	MST Days (200 mg/kg/inj ip, d.1)	Survivors Day 5(30) (200 mg/kg/inj ip, d.1)	maximum T/C [%]	optimal doses [mg/kg]	other results
O=C1[O][Pt]2([NH]C3CCCCC3[NH]2)[O]C(=O)C1O (centres unmarked) [2-hydroxymalonato(1,2-diaminocyclohexane)platinum (II)]	-0.3	142	8.5	6/6	150	9.0	6/6	183	11.0	6/6	lethal	TOX	TOX	TOX	0/6	183	100	Average Weight Change,g (50 mg/kg/inj ip, d.1): +0.1 g; Average Weight Change (100 mg/kg/inj ip, d.1): -1.5 g
O=C1[O][Pt]2([NH]C3CCCCC3[NH]2)[O]C(=O)C1[O-].[Na+] (centres unmarked) [Example 6, 2-Hydroxymalonato(1,2-diaminocyclohexane)platinum (II), sodium salt]	-0.8	183	11.0	6/6	208	12.5	6/6	217	13.0	6/6	lethal	TOX	TOX	TOX	1/6	217	100	Average Weight Change (6 mg/kg/inj ip, qd 1→9): -0.9 g; Effect MST % T/C (6 mg/kg/inj ip, qd 1→9): 192 % T/C; MST Days (6 mg/kg/inj ip, qd 1→9): 11.5 days; Survivors Day 5(30) (6 mg/kg/inj ip, qd 1→9): 6/6; Average Weight Change (12 mg/kg/inj ip, qd 1→9): -2.3 g; Effect MST % T/C (12 mg/kg/inj ip, qd 1→9): 233 % T/C; MST Days (12 mg/kg/inj ip, qd 1→9): 14.0 days; Survivors Day 5(30) (12 mg/kg/inj ip, qd 1→9): 6/6; Average Weight Change (24 mg/kg/inj ip, qd 1→9): -2.4 g; Effect MST % T/C (24 mg/kg/inj ip, qd 1→9): 342 % T/C; MST Days (24 mg/kg/inj ip, qd 1→9): 20.5 days; Survivors Day 5(30) (24 mg/kg/inj ip, qd 1→9): 4/6; Average Weight Change (48 mg/kg/inj ip, qd 1→9): -3.3 g; Effect MST % T/C (48 mg/kg/inj ip, qd 1→9): 100 % T/C; MST Days (48 mg/kg/inj ip, qd 1→9): 6.0 days; Survivors Day 5(30) (48 mg/kg/inj ip, qd 1→9): 5/6; Average Weight Change (50 mg/kg/inj ip, d.1): -1.2 g; Average Weight Change,g (100 mg/kg/inj ip, d.1): +2.6 g; T/C (qd 1→9, 12 mg/kg/inj): 233%; T/C (qd 1→9, 24 mg/kg/injection): 342%
